Experimental findings from patent US20250163104A1, “MACROCYCLIC IMMUNOMODULATORS” (priority 2021, published 2025) are described below.

Where a SMILES comes first, the peptide text is derived from it. Bridges are numbered along the chain shown (N, C = ends). [ ]: non-standard residue; d: D form. The star is where a group is joined. ξ: configuration not given here. Ala(1-amidino-4-piperidyl) = N=C(N)N1CCC(C[C@H](N)C(=O)O)CC1; Phe(4-CH2NH2) = NCc1ccc(C[C@H](N)C(=O)O)cc1; Bip = N[C@@H](Cc1ccc(-c2ccccc2)cc1)C(=O)O; NMehArg = CN[C@@H](CCCCNC(=N)N)C(=O)O; NMehPhe = CN[C@@H](CCc1ccccc1)C(=O)O; 4Pal = N[C@@H](Cc1ccncc1)C(=O)O; Cha = N[C@@H](CC1CCCCC1)C(=O)O; Cit = NC(=O)NCCC[C@H](N)C(=O)O; Ile(3ξ) = CCC(C)[C@H](N)C(=O)O; Thr(3ξ) = CC(O)[C@H](N)C(=O)O; NMeDab = CN[C@@H](CCN)C(=O)O; Dap(Me) = CNC[C@H](N)C(=O)O; Carboxymethyl = O=C(O)C*; Orn = NCCC[C@H](N)C(=O)O; Dab = NCC[C@H](N)C(=O)O; Dap = NC[C@H](N)C(=O)O

This assay deals with T1, human PD-1 / PD-L1-Ig binding on Jurkat cell line over-expressing human PD-1 (Jurkat-PD-1) (Homo sapiens, UniProt Q15116).
T1 construct: expressed in transfected cells; host or cells: Jurkat
T1 sequence (Q15116 25-288): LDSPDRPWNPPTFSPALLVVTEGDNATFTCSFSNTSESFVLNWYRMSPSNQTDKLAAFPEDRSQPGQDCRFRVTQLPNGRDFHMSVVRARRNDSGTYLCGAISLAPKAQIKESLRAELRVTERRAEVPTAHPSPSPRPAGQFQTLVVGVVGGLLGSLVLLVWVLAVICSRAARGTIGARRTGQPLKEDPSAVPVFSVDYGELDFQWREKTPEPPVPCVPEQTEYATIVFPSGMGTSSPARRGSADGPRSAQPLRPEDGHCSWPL
Briefly: Jurkat-PD-1 Cell Binding High-Content Screening Assay (CBA). It is filed as cell-based. Conditions: Jurkat-PD-1 cells, PE-labeled PD-L1-Ig 20 nM final; read-out: Jurkat HPD1_PDL1 IC50. The procedure, abridged:
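Read-out: high-content imaging of PE-tagged PD-L1-Ig bound to Jurkat cells overexpressing human PD-1, after fixation with 4% paraformaldehyde and Hoechst 33342 nuclear staining. Ligand was used at 20 nM final for 1 hour, after a 2 h compound exposure at 37° C in serum-containing DMEM.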
On to `CC(C)C[C@H]1NC(=O)[C@H](CCCN)NC(=O)[C@H](CCCNC(N)=O)NC(=O)[C@H](Cc2ccc(-c3ccccc3)cc2)NC(=O)[C@H](C(C)C)NC(=O)[C@H](Cc2c[nH]c3ccccc23)NC(=O)[C@H](CC(=O)O)NC(=O)[C@H](Cc2ccc(OCC(=O)O)cc2)NC(=O)[C@H](CC2CCN(C(=N)N)CC2)NC(=O)CSC[C@@H](C(=O)N[C@@H](C)C(N)=O)NC(=O)[C@H](CO)NC(=O)[C@H](C(C)C)NC(=O)[C@H](CC2CCCCC2)NC(=O)[C@H](CN)NC1=O` [Compound 2504] ({CH2CO}-[Ala(1-amidino-4-piperidyl)]Y(Carboxymethyl)DWV[Bip][Cit][Orn][dL][Dap][Cha]VSCA-NH2; thioether N-14), for which the IC50 – broadly, the concentration at which inhibition is half-maximal – came out at 15.9 nM. The same measure for `CCC(C)[C@@H]1NC(=O)[C@H](Cc2ccc(-c3ccccc3)cc2)NC(=O)[C@H](C(C)C)NC(=O)[C@H](Cc2c[nH]c3ccccc23)NC(=O)[C@H](CC(=O)O)NC(=O)[C@H](Cc2ccc(O)cc2)NC(=O)[C@H](Cc2ccncc2)NC(=O)CSC[C@@H](C(=O)N[C@@H](C)C(N)=O)NC(=O)[C@H](C(C)O)NC(=O)[C@H](C(C)C)NC(=O)[C@H](CC2CCCCC2)NC(=O)[C@H](CC(N)=O)NC(=O)[C@@H](CC(C)C)NC(=O)[C@H](Cc2ccc(CN)cc2)NC1=O` (stereo partly drawn) [Compound 2506] ({CH2CO}-[4Pal]YDWV[Bip][Ile(3ξ)][Phe(4-CH2NH2)][dL]N[Cha]V[Thr(3ξ)]CA-NH2; thioether N-14): 70.6 nM; for `CCC(C)[C@@H]1NC(=O)[C@H](Cc2ccc(-c3ccccc3)cc2)NC(=O)[C@H](C(C)C)NC(=O)[C@H](Cc2c[nH]c3ccccc23)NC(=O)[C@H](CC(=O)O)NC(=O)[C@H](Cc2ccc(OCC(=O)O)cc2)NC(=O)[C@H](CCN)NC(=O)CSC[C@@H](C(=O)N[C@@H](C)C(N)=O)NC(=O)[C@H](C(C)O)NC(=O)[C@H](C(C)C)NC(=O)[C@H](CC(C)C)NC(=O)[C@H](CCN)NC(=O)[C@@H](CC(C)C)NC(=O)[C@H](CCCN)NC1=O` (stereo partly drawn) [Compound 2507] ({CH2CO}-[Dab]Y(Carboxymethyl)DWV[Bip][Ile(3ξ)][Orn][dL][Dab]LV[Thr(3ξ)]CA-NH2; thioether N-14): 20.8 nM. With `CC(C)C[C@H]1NC(=O)[C@H](CCCN)NC(=O)[C@H](C(C)C)NC(=O)[C@H](Cc2ccc(-c3ccccc3)cc2)NC(=O)[C@H](C(C)C)NC(=O)[C@H](Cc2c[nH]c3ccccc23)NC(=O)[C@H](CC(=O)O)NC(=O)[C@H](Cc2ccc(OCC(=O)O)cc2)NC(=O)[C@H](C(C)O)NC(=O)CSC[C@@H](C(=O)N[C@@H](C)C(N)=O)NC(=O)[C@H](C(C)O)NC(=O)[C@H](C(C)C)NC(=O)C(CC2CCCCC2)NC(=O)[C@H](CCN)NC1=O` (some centres unmarked) [Compound 2511], the IC50 is 5.1 nM. The figure for `CCC(C)[C@@H]1NC(=O)[C@H](Cc2ccc(-c3ccccc3)cc2)NC(=O)[C@H](C(C)C)NC(=O)[C@H](Cc2c[nH]c3ccccc23)NC(=O)[C@H](CC(=O)O)NC(=O)[C@H](Cc2ccc(OCC(=O)O)cc2)NC(=O)[C@H](CNC)NC(=O)CSC[C@@H](C(=O)N[C@@H](C)C(N)=O)NC(=O)[C@H](C(C)O)NC(=O)[C@H](C(C)C)NC(=O)[C@H](CC(C)C)NC(=O)[C@H](CCN)NC(=O)[C@@H](CC(C)C)NC(=O)[C@H](CCCN)NC1=O` (stereo partly drawn) [Compound 2512] ({CH2CO}-[Dap(Me)]Y(Carboxymethyl)DWV[Bip][Ile(3ξ)][Orn][dL][Dab]LV[Thr(3ξ)]CA-NH2; thioether N-14) is 10.8 nM. Turning to `CC(C)C[C@H]1NC(=O)[C@H](CCCN)NC(=O)[C@H](C(C)C)NC(=O)[C@H](Cc2ccc(-c3ccccc3)cc2)NC(=O)[C@H](C(C)C)NC(=O)[C@H](Cc2c[nH]c3ccccc23)NC(=O)[C@H](CC(=O)O)NC(=O)[C@H](Cc2ccc(OCC(=O)O)cc2)NC(=O)[C@H](CCCCNC(=N)N)N(C)C(=O)CSC[C@@H](C(=O)N[C@@H](C)C(N)=O)NC(=O)[C@H](CO)NC(=O)[C@H](C(C)C)NC(=O)[C@H](CC2CCCCC2)NC(=O)[C@H](CCN)NC1=O` [Compound 2513] ({CH2CO}-[NMehArg]Y(Carboxymethyl)DWV[Bip]V[Orn][dL][Dab][Cha]VSCA-NH2; thioether N-14), the IC50 was 18 nM. Consider `CC(C)C[C@H]1NC(=O)[C@H](CCCN)NC(=O)[C@H](C(C)C)NC(=O)[C@H](Cc2ccc(-c3ccccc3)cc2)NC(=O)[C@H](C(C)C)NC(=O)[C@H](Cc2c[nH]c3ccccc23)NC(=O)[C@H](CC(=O)O)NC(=O)[C@H](Cc2ccc(OCC(=O)O)cc2)NC(=O)[C@H](CCO)NC(=O)CSC[C@@H](C(=O)N[C@@H](C)C(N)=O)NC(=O)[C@H](C(C)O)NC(=O)[C@H](C(C)C)NC(=O)[C@H](CC2CCCCC2)NC(=O)[C@H](CCN)NC1=O` (some centres unmarked) [Compound 2514], for which the IC50 was 5.4 nM. `CNC[C@@H]1NC(=O)CSC[C@@H](C(=O)N[C@@H](C)C(N)=O)NC(=O)[C@H](C(C)O)NC(=O)[C@H](C(C)C)NC(=O)[C@H](CC2CCCCC2)NC(=O)[C@H](CCN)NC(=O)[C@@H](CC(C)C)NC(=O)[C@H](CCCN)NC(=O)[C@H](C(C)C)NC(=O)[C@H](Cc2ccc(-c3ccccc3)cc2)NC(=O)[C@H](C(C)C)NC(=O)[C@H](Cc2c[nH]c3ccccc23)NC(=O)[C@H](CC(=O)O)NC(=O)[C@H](Cc2ccc(OCC(=O)O)cc2)NC1=O` (some centres unmarked) [Compound 2515]: the IC50 was determined as 16.3 nM.

`CC(C)C[C@H]1NC(=O)[C@H](CCCN)NC(=O)[C@H](C(C)C)NC(=O)[C@H](Cc2ccc(-c3ccccc3)cc2)NC(=O)[C@H](C(C)C)NC(=O)[C@H](Cc2c[nH]c3ccccc23)NC(=O)[C@H](CC(=O)O)NC(=O)[C@H](Cc2ccc(OCC(=O)O)cc2)NC(=O)[C@H](CCc2ccccc2)N(C)C(=O)CSC[C@@H](C(=O)N[C@@H](C)C(N)=O)NC(=O)[C@H](CO)NC(=O)[C@H](C(C)C)NC(=O)[C@H](CC2CCCCC2)NC(=O)[C@H](CCN)NC1=O` [Compound 2516] ({CH2CO}-[NMehPhe]Y(Carboxymethyl)DWV[Bip]V[Orn][dL][Dab][Cha]VSCA-NH2; thioether N-14): the half-maximal inhibitory concentration (IC50) was 10 nM. The same measure for `CCC(C)[C@@H]1NC(=O)[C@H](Cc2ccc(-c3ccccc3)cc2)NC(=O)[C@H](C(C)C)NC(=O)[C@H](Cc2c[nH]c3ccccc23)NC(=O)[C@H](CC(=O)O)NC(=O)[C@H](Cc2ccc(OCC(=O)O)cc2)NC(=O)[C@H](CCN)N(C)C(=O)CSC[C@@H](C(=O)N[C@@H](C)C(N)=O)NC(=O)[C@H](CO)NC(=O)[C@H](C(C)C)NC(=O)[C@H](CC2CCCCC2)NC(=O)[C@H](CCN)NC(=O)[C@@H](CC(C)C)NC(=O)[C@H](CCCN)NC1=O` (stereo partly drawn) [Compound 2517] ({CH2CO}-[NMeDab]Y(Carboxymethyl)DWV[Bip][Ile(3ξ)][Orn][dL][Dab][Cha]VSCA-NH2; thioether N-14): 3.4 nM; for `CCC(C)[C@@H]1NC(=O)[C@H](Cc2ccc(-c3ccccc3)cc2)NC(=O)[C@H](C(C)C)NC(=O)[C@H](Cc2c[nH]c3ccccc23)NC(=O)[C@H](CC(=O)O)NC(=O)[C@H](Cc2ccc(OCC(=O)O)cc2)NC(=O)[C@H](Cc2ccncc2)NC(=O)CSC[C@@H](C(=O)N[C@@H](C)C(N)=O)NC(=O)[C@H](C(C)O)NC(=O)[C@H](C(C)C)NC(=O)[C@H](CC2CCCCC2)NC(=O)[C@H](CCN)NC(=O)[C@@H](CC(C)C)NC(=O)[C@H](CCCN)NC1=O` (some centres unmarked) [Compound 2519]: 6.5 nM.
